Source: PubChem BioAssay AID1963959 (Molecular Pharmacology Branch, DTP, NCI, 2024)

Tested on: T-47D spheroids with HUVEC/MSC, viability
Assay: Anticancer human tumor T-47D cell line growth inhibition [PI3K];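 also: spheroids exposed to agents for seven days before reading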;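 as to viability, T/C: percent of DMSO vehicle control luminescence so 100% = untreated growth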
Conditions: for viability, T/C: stronger effect = lower value
Procedure, shortened: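 Viability of mixed-cell spheroids was determined after exposure to pairwise combinations, one partner being inavolisib, alpelisib, duvelisib or copanlisib. Highest tested concentration matched clinical Cmax where known and 10 microM where not, descending in half-log steps.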

[1] = curve of first compound, second compound 0.0316 µM
[2] = curve of first compound, second compound 0.1 µM
[3] = curve of first compound, second compound 0.316 µM
[4] = curve of first compound, second compound 1 µM
[5] = curve of first compound, second compound 3.16 µM
[6] = curve of first compound, second compound 10 µM
[7] = second compound 0.0316 µM, first compound 0.0316 µM
[8] = second compound 0.0316 µM, first compound 0.1 µM
[9] = second compound 0.0316 µM, first compound 0.316 µM
[10] = second compound 0.0316 µM, first compound 1 µM
[11] = second compound 0.0316 µM, first compound 3.16 µM
[12] = second compound 0.0316 µM, first compound 10 µM
[13] = second compound 0.1 µM, first compound 0.0316 µM
[14] = second compound 0.1 µM, first compound 0.1 µM
[15] = second compound 0.1 µM, first compound 0.316 µM
[16] = second compound 0.1 µM, first compound 1 µM
[17] = second compound 0.1 µM, first compound 3.16 µM
[18] = second compound 0.1 µM, first compound 10 µM
[19] = second compound 0.316 µM, first compound 0.0316 µM
[20] = second compound 0.316 µM, first compound 0.1 µM
[21] = second compound 0.316 µM, first compound 0.316 µM
[22] = second compound 0.316 µM, first compound 1 µM
[23] = second compound 0.316 µM, first compound 3.16 µM
[24] = second compound 0.316 µM, first compound 10 µM
[25] = second compound 1 µM, first compound 0.0316 µM
[26] = second compound 1 µM, first compound 0.1 µM
[27] = second compound 1 µM, first compound 0.316 µM
[28] = second compound 1 µM, first compound 1 µM
[29] = second compound 1 µM, first compound 3.16 µM
[30] = second compound 1 µM, first compound 10 µM
[31] = second compound 3.16 µM, first compound 0.0316 µM
[32] = second compound 3.16 µM, first compound 0.1 µM
[33] = second compound 10 µM, first compound 0.0316 µM
[34] = second compound 10 µM, first compound 0.1 µM

## CC1(C)CCC(Nc2ncc(C(F)(F)F)c(-c3c[nH]c4c(P(C)(C)=O)c(C#N)ccc34)n2)CN1 (stereo not drawn) + Cc1nc(NC(=O)N2CCCC2C(N)=O)sc1-c1ccnc(C(C)(C)C(F)(F)F)c1
[1]
  IC50: 8080 nM
[2]
  IC50: > 10000 nM
[3]
  IC50: 4920 nM
[4]
  IC50: 3390 nM
[5]
  IC50: < 31.6 nM
[6]
  IC50: < 31.6 nM
[7]
  viability, T/C: 73.6%
[8]
  viability, T/C: 64.5%
[9]
  viability, T/C: 73.7%
[10]
  viability, T/C: 72.4%
[11]
  viability, T/C: 72.2%
[12]
  viability, T/C: 45.1%
[13]
  viability, T/C: 68.7%
[14]
  viability, T/C: 65.8%
[15]
  viability, T/C: 65.6%
[16]
  viability, T/C: 64.6%
[17]
  viability, T/C: 70.9%
[18]
  viability, T/C: 42.9%
[19]
  viability, T/C: 67%
[20]
  viability, T/C: 57.7%
[21]
  viability, T/C: 55%
[22]
  viability, T/C: 55.7%
[23]
  viability, T/C: 59.2%
[24]
  viability, T/C: 35.9%
[25]
  viability, T/C: 56.7%
[26]
  viability, T/C: 58.1%
[27]
  viability, T/C: 45.2%
[28]
  viability, T/C: 44.2%
[29]
  viability, T/C: 54.4%
[30]
  viability, T/C: 22.7%
[31]
  viability, T/C: 47.3%
[32]
  viability, T/C: 41.3%
Second compound 3.16 µM, first compound 0.316 µM
  viability, T/C: 42.3%
Second compound 3.16 µM, first compound 1 µM
  viability, T/C: 38.6%
Second compound 3.16 µM, first compound 3.16 µM
  viability, T/C: 40.1%
Second compound 3.16 µM, first compound 10 µM
  viability, T/C: 8.96%
[33]
  viability, T/C: 30.3%
[34]
  viability, T/C: 29.4%
Second compound 10 µM, first compound 0.316 µM
  viability, T/C: 26.6%
Second compound 10 µM, first compound 1 µM
  viability, T/C: 27.5%
Second compound 10 µM, first compound 3.16 µM
  viability, T/C: 20.8%
Second compound 10 µM, first compound 10 µM
  viability, T/C: 3.07%

## CC(Cn1ccc(-c2ccc(C#N)c(Cl)c2)n1)NC(=O)c1cc(C(C)O)[nH]n1 (stereo not drawn) + COc1c(OCCCN2CCOCC2)ccc2c3n(c(=NC(=O)c4cnc(N)nc4)nc12)CCN3
Curve of first compound, second compound 0.00316 µM
  IC50: > 10000 nM
Curve of first compound, second compound 0.01 µM
  IC50: > 10000 nM
[1]
  IC50: 8440 nM
[2]
  IC50: < 31.6 nM
[3]
  IC50: < 31.6 nM
[4]
  IC50: < 31.6 nM
Second compound 0.00316 µM, first compound 0.0316 µM
  viability, T/C: 89%
Second compound 0.00316 µM, first compound 0.1 µM
  viability, T/C: 96%
Second compound 0.00316 µM, first compound 0.316 µM
  viability, T/C: 96.1%
Second compound 0.00316 µM, first compound 1 µM
  viability, T/C: 88%
Second compound 0.00316 µM, first compound 3.16 µM
  viability, T/C: 104%
Second compound 0.00316 µM, first compound 10 µM
  viability, T/C: 75.3%
Second compound 0.01 µM, first compound 0.0316 µM
  viability, T/C: 103%
Second compound 0.01 µM, first compound 0.1 µM
  viability, T/C: 83.3%
Second compound 0.01 µM, first compound 0.316 µM
  viability, T/C: 101%
Second compound 0.01 µM, first compound 1 µM
  viability, T/C: 93.5%
Second compound 0.01 µM, first compound 3.16 µM
  viability, T/C: 95.4%
Second compound 0.01 µM, first compound 10 µM
  viability, T/C: 59.5%
[7]
  viability, T/C: 69.2%
[8]
  viability, T/C: 77.4%
[9]
  viability, T/C: 74.7%
[10]
  viability, T/C: 82.1%
[11]
  viability, T/C: 79%
[12]
  viability, T/C: 45.7%
[13]
  viability, T/C: 38.9%
[14]
  viability, T/C: 39.2%
[15]
  viability, T/C: 41.5%
[16]
  viability, T/C: 45.7%
[17]
  viability, T/C: 40.7%
[18]
  viability, T/C: 33.9%
[19]
  viability, T/C: 14.8%
[20]
  viability, T/C: 15.9%
[21]
  viability, T/C: 15.3%
[22]
  viability, T/C: 14.4%
[23]
  viability, T/C: 18.7%
[24]
  viability, T/C: 20.4%
[25]
  viability, T/C: 8.77%
[26]
  viability, T/C: 8.22%
[27]
  viability, T/C: 7.63%
[28]
  viability, T/C: 5.85%
[29]
  viability, T/C: 7.24%
[30]
  viability, T/C: 3.67%

## CC(C)n1nc(-c2ccc3oc(N)nc3c2)c2c(N)ncnc21 + CC(Nc1ncnc2nc[nH]c12)c1cc2cccc(Cl)c2c(=O)n1-c1ccccc1
[1]
  IC50: 70.5 nM
[2]
  IC50: 83.5 nM
[3]
  IC50: 61.8 nM
[4]
  IC50: 72.2 nM
[5]
  IC50: 64.3 nM
[6]
  IC50: 50.9 nM
Second compound 0.0316 µM, first compound 0.000316 µM
  viability, T/C: 116%
Second compound 0.0316 µM, first compound 0.001 µM
  viability, T/C: 103%
Second compound 0.0316 µM, first compound 0.00316 µM
  viability, T/C: 98.8%
Second compound 0.0316 µM, first compound 0.01 µM
  viability, T/C: 97.3%
[7]
  viability, T/C: 90%
[8]
  viability, T/C: 33.1%
Second compound 0.1 µM, first compound 0.000316 µM
  viability, T/C: 92.2%
Second compound 0.1 µM, first compound 0.001 µM
  viability, T/C: 76.5%
Second compound 0.1 µM, first compound 0.00316 µM
  viability, T/C: 87.8%
Second compound 0.1 µM, first compound 0.01 µM
  viability, T/C: 92.8%
[13]
  viability, T/C: 79.2%
[14]
  viability, T/C: 44.6%
Second compound 0.316 µM, first compound 0.000316 µM
  viability, T/C: 93.5%
Second compound 0.316 µM, first compound 0.001 µM
  viability, T/C: 107%
Second compound 0.316 µM, first compound 0.00316 µM
  viability, T/C: 91.3%
Second compound 0.316 µM, first compound 0.01 µM
  viability, T/C: 104%
[19]
  viability, T/C: 67.6%
[20]
  viability, T/C: 37.3%
Second compound 1 µM, first compound 0.000316 µM
  viability, T/C: 86.4%
Second compound 1 µM, first compound 0.001 µM
  viability, T/C: 107%
Second compound 1 µM, first compound 0.00316 µM
  viability, T/C: 78.4%
Second compound 1 µM, first compound 0.01 µM
  viability, T/C: 90%
[25]
  viability, T/C: 83.7%
[26]
  viability, T/C: 36.6%
Second compound 3.16 µM, first compound 0.000316 µM
  viability, T/C: 99.4%
Second compound 3.16 µM, first compound 0.001 µM
  viability, T/C: 94.2%
Second compound 3.16 µM, first compound 0.00316 µM
  viability, T/C: 86.9%
Second compound 3.16 µM, first compound 0.01 µM
  viability, T/C: 76.2%
[31]
  viability, T/C: 82.2%
[32]
  viability, T/C: 33.1%
Second compound 10 µM, first compound 0.000316 µM
  viability, T/C: 95%
Second compound 10 µM, first compound 0.001 µM
  viability, T/C: 75.1%
Second compound 10 µM, first compound 0.00316 µM
  viability, T/C: 80.5%
Second compound 10 µM, first compound 0.01 µM
  viability, T/C: 75.6%
[33]
  viability, T/C: 61.4%
[34]
  viability, T/C: 35.1%

## CC(C)NCC(C(=O)N1CCN(c2ncnc3c2C(C)CC3O)CC1)c1ccc(Cl)cc1 (stereo not drawn)
Compound 0.0316 µM
  viability, T/C: 99.4% [middle of 4 runs]
Compound 0.1 µM
  viability, T/C: 83.5% [middle of 4 runs]
Compound 0.316 µM
  viability, T/C: 84.9% [middle of 4 runs]
Compound 1 µM
  viability, T/C: 79.4% [middle of 4 runs]
Compound 3.16 µM
  viability, T/C: 64.1% [middle of 4 runs]
Compound 10 µM
  viability, T/C: 52.3% [middle of 4 runs]
Curve of compound
  IC50: > 10000 nM
